Several values for one entry are separate records, joined by “and”; a condition that tells them apart may be missing. Identical values can stand only once.
Columns and labels:
[1] = test system: human skin fibroblasts (SNF25 p 23); test: Short-term growth (one step growth curve, Coulter counting, Giemsa morphology); format: cell-based
Experimental: (§1) Test solution preparation: Stock solutions of 8 mM for the 3-p-hydroxyphenyl-propanoic acid amide were prepared by dissolving about 30 mg/ml in Hank's buffer to a final volume of 30 ml. In brief, the stock solutions were filter sterilized, stored at 4° C., and were used for experiments at their appropriate dilutions in cell culture media as required. Cell culture: All experiments were performed on mid- and late passage cultures of normal human adult skin fibroblast line, designated Senetek SNF25 (40-75% life span completed). In order to check the effects of test compounds on senescent cells, late passage cells with about 75% lifespan completed were used. SNF25 cell line was established from a mammary skin biopsy obtained from a young, non-smoking and healthy […] at the time of breast reduction operation. Normal culture conditions of medium (DMEM) containing antibiotics, 10% fetal calf serum, and incubation at 37° C., 5% CO2 with 95% humidity were used. The effects of the test chemicals were determined in the following conditions: Growth characteristics: Short-term growth experiments were performed using 24-well tissue culture plates (growth area 1.9 cm^2) and flat bottom 96 well plates (growth area 0.328 cm^2). Freshly prepared cell suspensions from mass cultures of SNF25 cells maintained in the lab were used. About 10,000 cells/well were seeded into 6 sets of 24-well plates. The cells were either allowed to attach and stabilize for 24 hours in normal culture medium or were directly added to the culture medium of a final concentration (range 40 μM to 500 μM). Culture medium was changed with the addition of test chemicals weekly. The numbers of cells were counted after different days of treatment in 2 wells from each concentration of the test chemical, by following the normal method of cell trypsinization and counting using a Coulter Counter. The third well in each category was fixed with cold methanol and stained with Giemsa stain for permanent record and for photography. The experiment was carried on until the cultures became fully confluent and no further growth was possible. Cell survival, toxicity and JC-1 staining: Cell survival after exposure to various doses was measured with the 3-(4,5 dimethylthiazol-2-yl)-2,5-diphenyltetrazolium bromide (MTT) assay. About 5,000 cells were seeded per well in a 96-well plate for 24 hours before the experiment. Cells were then treated with various doses of the compound to be tested. The wells were washed in Hank's and new medium was added. After three days, MTT (Sigma, M2128) was added at 0.5 mg/ml in medium. After 4 h, MTT was removed and isopropanol and HCl were added to dissolve the MTT crystals for 12-16 h. The absorbance was measured at 595 nm. Lysosomal activity: Neutral Red is preferentially taken up into the lysosomes of the cell. Fibroblast cells were maintained in culture and exposed to test compounds over a range of concentrations. The cultures were visually examined after 72 hours, and the number of viable cells and/or the total cell protein content determined, after 72 hours exposure, by the Neutral Red Uptake method. Individual wells of a 96-well tissue culture microtiter plate were inoculated with 0.2 ml of the appropriate media containing cells (usually 3×10^3 cells). After 1 day of incubation, the media were removed and replaced with unamended (control) medium or with medium amended with varied concentrations of the compound to be tested. […]

fibroblasts = test: Induction of cell proliferation (DNA synthesis, BrdU incorporation); format: cell-based, human; conditions: pre-treated fibroblasts
[2] = test system: human dermal fibroblasts (SNF25); test: Cell attachment of human skin fibroblasts; format: cell-based
Experimental: (§2) Test solution preparation: Stock solutions of 8 mM for the 3-p-hydroxyphenyl-propanoic acid amide were prepared by dissolving about 30 mg/ml in Hank's buffer to a final volume of 30 ml. In brief, the stock solutions were filter sterilized, stored at 4° C., and were used for experiments at their appropriate dilutions in cell culture media as required. Cell culture: All experiments were performed on mid- and late passage cultures of normal human adult skin fibroblast line, designated Senetek SNF25 (40-75% life span completed). In order to check the effects of test compounds on senescent cells, late passage cells with about 75% lifespan completed were used. SNF25 cell line was established from a mammary skin biopsy obtained from a young, non-smoking and healthy […] at the time of breast reduction operation. Normal culture conditions of medium (DMEM) containing antibiotics, 10% fetal calf serum, and incubation at 37° C., 5% CO2 with 95% humidity were used. The effects of the test chemicals were determined in the following conditions: Growth characteristics: Short-term growth experiments were performed using 24-well tissue culture plates (growth area 1.9 cm^2) and flat bottom 96 well plates (growth area 0.328 cm^2). Freshly prepared cell suspensions from mass cultures of SNF25 cells maintained in the lab were used. About 10,000 cells/well were seeded into 6 sets of 24-well plates. […] The numbers of cells were counted after different days of treatment in 2 wells from each concentration of the test chemical, by following the normal method of cell trypsinization and counting using a Coulter Counter. […] Cell survival, toxicity and JC-1 staining: Cell survival after exposure to various doses was measured with the 3-(4,5 dimethylthiazol-2-yl)-2,5-diphenyltetrazolium bromide (MTT) assay. […] The absorbance was measured at 595 nm. […] The cultures were visually examined after 72 hours, and the number of viable cells and/or the total cell protein content determined, after 72 hours exposure, by the Neutral Red Uptake method. […]

late passage cells = test: Cell survival of late passage (senescent) cells, Coulter counting; format: cell-based, human
Experimental: Effects on late passage cells—Cytoskeletal organization: Late passage cells with more than 75% lifespan were treated with different doses of phloretamide in order to see if this treatment could revert any of the age related changes. […] Effect of 3-p-hydroxyphenyl-propionic acid amide on the morphology of late passage cells after 7 and 14 days—Morphology of senescent cells: Late passage human skin fibroblasts (about 75% life span completed) were treated with various doses of phloretamide to see whether this treatment could reverse age-related alterations in their morphology. […] Heterogeneous behavior was not observed in the cells. […] Cell survival: Equal numbers of senescent cells were seeded in separate flasks and were treated with different concentrations of phloretamide. Cell numbers were determined by using a Coulter counter after trypsinization and resuspension of cells after 7 and 14 days of treatment.

SNF25 p 44 cells = test: JC-1 staining of mitochondrial potential by fluorescence microscopy; format: cell-based, human; conditions: pre-treatment for 3 days, all doses
Experimental: FIG. 3 presents the localization of JC-1 in SNF25 p44 cells using phloretamide by fluorescence microscopy.
Localization of JC-1 in SNF25 p 44 cells using phloretamide by fluorescence microscopy is shown on FIG. 3.
Staining for JC-1 was performed after phloretamide pre-treatment on dermal fibroblasts for a period of 3 days to see the mitochondrial potential.

[3] = test system: middle aged dermal fibroblasts; test: Mitochondrial activity / cell survival (MTT assay); format: cell-based, human
Experimental: Test solution preparation: Stock solutions of 8 mM for the 3-p-hydroxyphenyl-propanoic acid amide were prepared by dissolving about 30 mg/ml in Hank's buffer to a final volume of 30 ml. In brief, the stock solutions were filter sterilized, stored at 4° C., and were used for experiments at their appropriate dilutions in cell culture media as required. Cell culture: All experiments were performed on mid- and late passage cultures of normal human adult skin fibroblast line, designated Senetek SNF25 (40-75% life span completed). In order to check the effects of test compounds on senescent cells, late passage cells with about 75% lifespan completed were used. […] The effects of the test chemicals were determined in the following conditions: Growth characteristics: Short-term growth experiments were performed using 24-well tissue culture plates (growth area 1.9 cm^2) and flat bottom 96 well plates (growth area 0.328 cm^2). […] The numbers of cells were counted after different days of treatment in 2 wells from each concentration of the test chemical, by following the normal method of cell trypsinization and counting using a Coulter Counter. […] Cell survival, toxicity and JC-1 staining: Cell survival after exposure to various doses was measured with the 3-(4,5 dimethylthiazol-2-yl)-2,5-diphenyltetrazolium bromide (MTT) assay. […] The absorbance was measured at 595 nm. […]

[4] = test system: Fibroblast cells (SF25 p29); test: Lysosomal activity (Neutral Red Uptake assay); format: cell-based, human
Experimental: as §1, with “After three days, MTT (Sigma, M2128) was added at 0.5 mg/ml in medium. After 4 h, MTT was removed and isopropanol and HCl were added to dissolve the MTT crystals for 12-16 h.” left out, “Lysosomal activity: Neutral Red is preferentially taken up into the lysosomes of the cell. Fibroblast cells were maintained in culture and exposed to test compounds over a range of concentrations.” left out, “method.” for “method. Individual wells of a 96-well tissue culture microtiter plate were inoculated with 0.2 ml of the appropriate media containing cells (usually 3×10^3 cells). After 1 day of incubation, the media were removed and replaced with unamended (control) medium or with medium amended with varied concentrations of the compound to be tested.”

[5] = test system: Late passage human skin fibroblasts; test: Cytoskeletal organization and morphology of late passage cells; format: cell-based
Experimental: as §2

NC(=O)CCc1ccc(O)cc1 [phloretamide, 3-(4-hydroxyphenyl)propanoic acid amide]
inhibition at 500 µM ([1]; Homo sapiens, Skin fibroblast, 264 h, higher concentrations (500 μM), 11 days, read-out: inhibition of cellular growth): > 50% | increase in cell numbers ([1]; after 11 days of treatment, 40 μM to 200 μM): 10-20% | doses at which cytotoxicity of cells was seen ([1]; after 11 days of treatment, morphology): greater than 200 μM | stimulation of cell growth ([1]; at 40 μM and 80 μM, one step growth curve, up to 11 days): stimulation of cell growth | appearance (morphology) of cells ([1]; at higher doses, after 11 days of treatment (FIG. 2 E)): larger, irregularly arranged and sparse | DNA synthesis in comparison to the controls (fibroblasts): no significant differences | percentage of cells attached to the surface of the culture flask ([2]; after six hours of treatment, 40 11 M to 2 mM): not affected to any significant extent | improved / enhanced cell attachment ([2]; at 40 μM and 80 μM): 20-30% and 10-20% | immediate toxicity to human dermal fibroblasts ([2]; six hours of treatment): not immediately toxic | numbers of surviving late passage cells (late passage cells; after one and two weeks): almost similar without much difference | cell growth of late passage cells (late passage cells; at higher doses, after 7 and 14 of treatment): dose dependent reduction | JC-1 staining (mitochondrial potential) (SNF25 p 44 cells): polarized mitochondria | JC-1 staining (mitochondrial potential) (SNF25 p 44 cells; listed as 3-p-hydroxyphenyl-propionic acid amide): Punctate orange-red fluorescent staining was observed | effects on the activity of mitochondria ([3]; until a dose of 500 μM, 3 days, MTT): no negative effects | induction of cell growth ([3]; within the tested range of doses (0, 01 μM-500 μM)): no induction of cell growth | staining pattern of the cells (lysosomal staining) ([4]; 40 μM and 80 μM, FIG. 4): showed autophagy | decrease in the lysosomal autophagy ([4]; dose range of 40 μM and 80 μM): 15-40% | lysosomal rate compared to the untreated ([4]; up to 200 μM, 72 hours exposure): decreased in a dose dependent manner | lysosomal activity ([4]; upwards of 40 μM): decrease in lysosomal activity was observed | improvement in the late passage cells ([5]; after 14 days of treatment): couldn't find an improvement | appearance (morphology) of late passage cells ([5]; after seven and fourteen days of treatment, about 75% life span completed): subtle differences | actin staining pattern, treated versus untreated cells ([5]; middle-aged cells after 3 days): no obvious differences

Source: patent US7923578B2, “Method of manufacturing 3-(4-hydroxyphenyl)propanoic acid amide, its application in the manufacture of anti-aging compositions and anti-aging composition” (Instytut Chemii Bioorganicznej Pan, priority 2005, dated 2011)
